Non-standard residues stand in square brackets, D forms with d. No end group written: not given here.
What was measured:
heat-induced edema [1] = experiment: Suppression of heat-induced edema in the anesthetized rat hind paw; format: in vivo
Protocol: The index of anti-inflammatory activity was measured as suppression by heat-induced edema. Briefly, male Sprague-Dawley rats weighing 200-250 g were anesthetized with sodium pentobarbital (60 mg/kg i.p.). Saline (1 ml/kg body weight) or test substances dissolved in saline were injected i.v. via a branch of the femoral vein. Ten minutes after injection, thermal stimulus was applied to the hind paw by immersion of the foot, up to the ankle joint, in 58° C. water for 1 minute. Thirty minutes after heat exposure, animals were killed by overdose with concentrated sodium pentobarbital and both hind paws were removed at the ankle joint and weighed. The degree of heat-induced edema was estimated as the difference between the weights of the heated and unheated paws divided by the weight of the unheated paw. Four to six analogs (N≥3 animals per dose level with 3 to 4 dose levels per analog) were tested on each occasion with concurrent saline controls. The median effective dose (ED50) was calculated according to the method of Litchfield and Wilcoxon (1949).

CRF binding protein = target: T1, CRF binding protein (Homo sapiens, UniProt P24387); experiment: Complex formation of I125-labelled peptide with CRF-binding protein, Sephadex G100 column; settings: radio-iodinated peptide, Sephadex G100 fractions
T1 sequence (P24387 25-322): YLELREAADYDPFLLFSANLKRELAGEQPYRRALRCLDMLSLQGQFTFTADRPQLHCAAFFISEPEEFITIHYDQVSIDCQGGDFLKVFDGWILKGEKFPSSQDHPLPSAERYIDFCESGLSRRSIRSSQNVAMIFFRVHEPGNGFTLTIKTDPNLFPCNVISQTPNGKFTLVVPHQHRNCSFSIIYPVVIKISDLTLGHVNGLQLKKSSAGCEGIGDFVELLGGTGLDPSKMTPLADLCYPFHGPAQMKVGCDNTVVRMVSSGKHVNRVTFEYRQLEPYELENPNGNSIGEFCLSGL
Protocol: Both peptides were radio-iodinated with I^125, incubated with CRF-binding protein, placed on a Sephadex G100 column and the fractions collected.

CRF-R1 = target: T2, CRF-R1 (Rattus norvegicus, UniProt P35353); experiment: cAMP stimulation in 293-EBNA cells transfected with CRF-R1 (PC-CRF receptor); format: cell-based; settings: for EC50: Table 2, cAMP, 293-EBNA stable transfectants
T2 construct: Cells were transfected with the full-length cDNA of these receptors; expressed in transfected cells
T2 sequence (P35353 24-415): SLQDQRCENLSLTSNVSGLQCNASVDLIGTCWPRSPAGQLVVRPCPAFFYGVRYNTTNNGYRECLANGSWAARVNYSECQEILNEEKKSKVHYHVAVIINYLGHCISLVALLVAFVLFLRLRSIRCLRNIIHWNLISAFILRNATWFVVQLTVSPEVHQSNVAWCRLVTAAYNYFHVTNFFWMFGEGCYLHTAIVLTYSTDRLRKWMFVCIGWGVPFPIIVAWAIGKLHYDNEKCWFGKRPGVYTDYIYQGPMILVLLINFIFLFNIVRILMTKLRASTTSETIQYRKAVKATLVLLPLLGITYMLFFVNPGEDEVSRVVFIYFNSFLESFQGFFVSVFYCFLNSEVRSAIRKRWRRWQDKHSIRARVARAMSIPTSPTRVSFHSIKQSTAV
Protocol: These were the pituitary-central nervous system (PC)-CRF receptor and the heart muscle (HM)-CRF receptor, also called CRF-R1 and CRF-R2β. Cells were transfected with the full-length cDNA of these receptors. […] Stable transfectants were incubated with 50 μM 3-isobutylmethyl-1-methylxanthine for 20 minutes at 37° C. and then peptides were added and incubated for another 20 minutes at 37° C. Levels of cAMP were assayed in sextuplicate. Cells transfected with these CRF receptors are sensitive to the cAMP stimulatory effects of CRF.

CRF-R2β = target: T3, CRF-R2β (Mus musculus, UniProt Q60748); experiment: cAMP stimulation in 293-EBNA cells transfected with CRF-R2β (HM-CRF receptor); format: cell-based; settings: Table 2; for EC50: cAMP, 293-EBNA stable transfectants
T3 construct: Cells were transfected with the full-length cDNA of these receptors; expressed in transfected cells
T3 sequence (Q60748 1-431 isoform Q60748-2): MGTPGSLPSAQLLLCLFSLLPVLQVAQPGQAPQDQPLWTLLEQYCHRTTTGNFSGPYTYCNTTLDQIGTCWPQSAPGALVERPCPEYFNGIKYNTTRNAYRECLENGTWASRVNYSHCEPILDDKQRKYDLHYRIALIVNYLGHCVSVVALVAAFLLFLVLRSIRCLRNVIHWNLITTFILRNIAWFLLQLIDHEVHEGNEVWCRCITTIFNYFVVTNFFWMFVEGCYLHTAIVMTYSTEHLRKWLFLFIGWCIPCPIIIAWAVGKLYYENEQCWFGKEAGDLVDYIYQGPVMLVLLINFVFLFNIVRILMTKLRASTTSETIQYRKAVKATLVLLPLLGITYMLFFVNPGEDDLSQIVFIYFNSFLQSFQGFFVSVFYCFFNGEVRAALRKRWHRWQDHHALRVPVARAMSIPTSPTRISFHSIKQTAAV
Protocol: For another assay, two types of cloned CRF receptors were assessed for their responses to the CRF analogs. These were the pituitary-central nervous system (PC)-CRF receptor and the heart muscle (HM)-CRF receptor, also called CRF-R1 and CRF-R2β. Cells were transfected with the full-length cDNA of these receptors. These procedures were performed according to Chang et al., Neuron, 11, pp. 1187-1195 (1993) and Kishimoto et al., Proc. Natl. Acad. Sci. USA, 92, pp. 1108 (1995). cDNAS for the PC-CRF receptor and the HM-CRF receptor were subcloned into expression vector pCEP4 and transfected into 293-EBNA cells. Stable transfectants were incubated with 50 μM 3-isobutylmethyl-1-methylxanthine for 20 minutes at 37° C. and then peptides were added and incubated for another 20 minutes at 37° C. Levels of cAMP were assayed in sextuplicate. Cells transfected with these CRF receptors are sensitive to the cAMP stimulatory effects of CRF. […] As noted previously, the anti-inflammatory potency of these two analogs were also identical.

heat-induced edema [2] = settings: intravenous; Wei and Kiang 1989; cited from earlier work
ACTH release = experiment: Relative ACTH-releasing potency of singly D-substituted ovine CRF analogs (FIG. 1); settings: relative to unmodified oCRF
Text: Turning to FIG. 1, 37 different ovine CRF analogs were singly substituted with a D-amino acid and screened for suppression of heat-induced edema and relative ACTH-releasing potency. […]

rat pituitary cells = experiment: In vitro ACTH release from rat pituitary segments, radioimmunoassay (FIG. 2); format: cell-based; settings: ir-ACTH
Protocol: In determining ACTH release, an useful assay system to measure ACTH release by an in vitro assay is where basal or CRF-induced ACTH release is measured in the manner described by Vale et al. ("Assay of Corticotropin Releasing Factor," Methods in Enzymology: Neuroendocrine Peptides, 103, pp. 565-577, Conn. Ed., Academic Press, New York, 1983). The results shown in FIG. 2 were obtained by incubating the test peptides with segments of rat pituitary cells. After incubation the ACTH in the fluid bathing these segments were measured by radioimmunoassay (ir-ACTH) in units of pg of ACTH per mg of pituitary tissue. […] After the addition of CRF, this is increased in a dose-dependent relationship. […] However, the anti-edema potencies between these two peptides were identical.

[3] = i.v. 10 min before 58° C. water for 1 minute, paw weight 30 min after heat, 95% CL in brackets

Compound: SEEP[dP]ISLDLTFHLLREVLEMTKADQLAQQAHSNRKLMEII-NH2 [[D-Pro^5, Thr^22, Lys^23, Asp^25]h/rCRF]
- ED50 (95% CL) μg/kg i.v. (heat-induced edema [1]; Table 3, i.v.): 19 µg/kg
- ED50 (95% CL) μg/kg i.v. (heat-induced edema [1]; [3]): 19 (9-38) μg/kg
- complex formation with CRF-binding protein (CRF binding protein): did not form a complex with binding protein

Compound: CC[C@H](C)[C@H](NC(=O)[C@H](CO)NC(=O)[C@H](CC(C)C)NC(=O)[C@@H]1CCCN1C(=O)[C@@H]1CCCN1C(=O)[C@H](CC(=O)O)NC(=O)[C@@H](N)CC(=O)O)C(=O)N[C@@H](CC(=O)O)C(=O)N[C@@H](CC(C)C)C(=O)N[C@H](C(=O)N[C@@H](Cc1ccccc1)C(=O)N[C@@H](Cc1c[nH]cn1)C(=O)N[C@@H](CC(C)C)C(=O)N[C@@H](CC(C)C)C(=O)N[C@@H](CCCNC(=N)N)C(=O)N[C@H](C(=O)N[C@@H](CC(C)C)C(=O)N[C@@H](CC(C)C)C(=O)N[C@@H](CCC(=O)O)C(=O)N[C@@H](CC(C)C)C(=O)N[C@@H](C)C(=O)N[C@@H](CCCNC(=N)N)C(=O)N[C@H](C(=O)N[C@@H](CCC(N)=O)C(=O)N[C@@H](CO)C(=O)N[C@@H](CCC(N)=O)C(=O)N[C@@H](CCCNC(=N)N)C(=O)N[C@@H](CCC(=O)O)C(=O)N[C@@H](CCCNC(=N)N)C(=O)N[C@@H](C)C(=O)N[C@@H](CCC(=O)O)C(=O)N[C@@H](CCC(N)=O)C(=O)N[C@@H](CC(N)=O)C(=O)N[C@@H](CCCNC(=N)N)C(=O)N[C@H](C(=O)N[C@H](C(=O)N[C@@H](Cc1ccccc1)C(=O)N[C@@H](CC(=O)O)C(=O)N[C@@H](CO)C(=O)N[C@H](C(N)=O)C(C)C)[C@@H](C)CC)[C@@H](C)CC)[C@@H](C)O)[C@@H](C)O)[C@@H](C)O [urocortin (rat), reference compound]
- EC50 (CRF-R1): 0.15 nM
- EC50 (CRF-R2β): 0.32 nM

Compound: NDDPPISIDLTFHLLRNMIEMARIENEREQAGLNRKYLDEV-NH2 (C-terminus assumed) [white sucker fish urotensin I]
- ED50 for suppression of heat-induced edema in the rat (heat-induced edema [2]): 1.5 nmol/kg

Compound: CC[C@H](C)[C@H](NC(=O)[C@H](CC(=O)O)NC(=O)[C@H](CC(C)C)NC(=O)[C@H](CC(C)C)NC(=O)[C@H](CCCCN)NC(=O)[C@H](CCCNC(=N)N)NC(=O)[C@H](CC(N)=O)NC(=O)[C@H](CO)NC(=O)[C@H](Cc1c[nH]cn1)NC(=O)[C@H](C)NC(=O)[C@H](CCC(N)=O)NC(=O)[C@H](CCC(N)=O)NC(=O)[C@H](C)NC(=O)[C@H](CC(C)C)NC(=O)[C@H](CCC(N)=O)NC(=O)[C@H](CC(=O)O)NC(=O)[C@H](C)NC(=O)[C@H](CCCCN)NC(=O)[C@@H](NC(=O)[C@H](CCSC)NC(=O)[C@H](CCC(=O)O)NC(=O)[C@H](CC(C)C)NC(=O)[C@@H](NC(=O)[C@H](CCC(=O)O)NC(=O)[C@H](CCCNC(=N)N)NC(=O)[C@H](CC(C)C)NC(=O)[C@H](CC(C)C)NC(=O)[C@H](Cc1c[nH]cn1)NC(=O)[C@H](Cc1ccccc1)NC(=O)[C@@H](NC(=O)[C@H](CC(C)C)NC(=O)[C@H](CC(=O)O)NC(=O)[C@H](CC(C)C)NC(=O)[C@H](CO)NC(=O)[C@@H](NC(=O)[C@H]1CCCN1C(=O)[C@@H]1CCCN1C(=O)[C@H](CCC(=O)O)NC(=O)[C@H](CCC(N)=O)NC(=O)[C@@H](N)CO)[C@@H](C)CC)[C@@H](C)O)C(C)C)[C@@H](C)O)C(=O)N[C@@H](C)C(N)=O [[D-Pro^5]oCRF]
- ACTH-releasing potency retained relative to the unmodified peptide (ACTH release): 8%

Compound: CC[C@H](C)[C@H](NC(=O)[C@@H](NC(=O)[C@H](CC(=O)O)NC(=O)[C@H](CC(C)C)NC(=O)[C@H](CC(C)C)NC(=O)[C@H](CC(C)C)NC(=O)[C@H](CCCNC(=N)N)NC(=O)[C@H](CC(N)=O)NC(=O)[C@H](CC(N)=O)NC(=O)[C@H](C)NC(=O)[C@H](C)NC(=O)[C@H](CCC(N)=O)NC(=O)[C@H](CCC(N)=O)NC(=O)[C@H](CCCCN)NC(=O)[C@H](CCC(=O)O)NC(=O)[C@H](CCCCN)NC(=O)[C@H](CCC(=O)O)NC(=O)[C@H](CCC(N)=O)NC(=O)[C@H](CCCCN)NC(=O)[C@H](CCC(=O)O)NC(=O)[C@@H](NC(=O)[C@H](CCC(=O)O)NC(=O)[C@@H](NC(=O)[C@H](CCSC)NC(=O)[C@H](CCCCN)NC(=O)[C@H](CCCNC(=N)N)NC(=O)[C@H](CC(C)C)NC(=O)[C@H](CC(C)C)NC(=O)[C@H](CCC(=O)O)NC(=O)[C@H](CC(C)C)NC(=O)[C@H](CO)NC(=O)[C@H](CC(C)C)NC(=O)[C@H](CC(=O)O)NC(=O)[C@@H](NC(=O)[C@H](CO)NC(=O)[C@@H](NC(=O)[C@@H]1CCCN1C(=O)[C@@H]1CCCN1C(=O)CNC(=O)[C@@H]1CCC(=O)N1)[C@@H](C)CC)[C@@H](C)CC)[C@@H](C)CC)[C@@H](C)CC)[C@@H](C)O)C(N)=O [sauvagine]
- ED50 for suppression of heat-induced edema in the rat (heat-induced edema [2]): 0.44 nmol/kg

Compound: CC[C@H](C)[C@H](NC(=O)[C@H](CO)NC(=O)[C@H](CC(C)C)NC(=O)[C@H]1CCCN1C(=O)[C@@H]1CCCN1C(=O)[C@H](CC(=O)O)NC(=O)[C@@H](N)CC(=O)O)C(=O)N[C@@H](CC(=O)O)C(=O)N[C@@H](CC(C)C)C(=O)N[C@H](C(=O)N[C@@H](Cc1ccccc1)C(=O)N[C@@H](Cc1c[nH]cn1)C(=O)N[C@@H](CC(C)C)C(=O)N[C@@H](CC(C)C)C(=O)N[C@@H](CCCNC(=N)N)C(=O)N[C@H](C(=O)N[C@@H](CC(C)C)C(=O)N[C@@H](CC(C)C)C(=O)N[C@@H](CCC(=O)O)C(=O)N[C@@H](CC(C)C)C(=O)N[C@@H](C)C(=O)N[C@@H](CCCNC(=N)N)C(=O)N[C@H](C(=O)N[C@@H](CCC(N)=O)C(=O)N[C@@H](CO)C(=O)N[C@@H](CCC(N)=O)C(=O)N[C@@H](CCCNC(=N)N)C(=O)N[C@@H](CCC(=O)O)C(=O)N[C@@H](CCCNC(=N)N)C(=O)N[C@@H](C)C(=O)N[C@@H](CCC(=O)O)C(=O)N[C@@H](CCC(N)=O)C(=O)N[C@@H](CC(N)=O)C(=O)N[C@@H](CCCNC(=N)N)C(=O)N[C@H](C(=O)N[C@H](C(=O)N[C@@H](Cc1ccccc1)C(=O)N[C@@H](CC(=O)O)C(=O)N[C@@H](CO)C(=O)N[C@H](C(N)=O)C(C)C)[C@@H](C)CC)[C@@H](C)CC)[C@@H](C)O)[C@@H](C)O)[C@@H](C)O [[D-Pro^4]urocortin (rat)]
- EC50 (CRF-R1): 0.2 nM
- Increment in Selectivity (CRF-R2β; D-substituted analog versus parent peptide): 2.5 fold
- EC50 (CRF-R2β): 1 nM

Compound: [D-Pro^5 ] human/rat CRF [[D-Pro^5]h/rCRF]
- ED50 (95% CL) μg/kg i.v. (heat-induced edema [1]; Table 3, i.v.): 10 µg/kg
- ED50 (95% CL) μg/kg i.v. (heat-induced edema [1]; [3]): 10 (3-33) μg/kg
- decrease of potency for ACTH release versus CRF (rat pituitary cells): at least 10 fold
- change of potency for CRF-R1 after replacement of Pro5 by D-Pro (CRF-R1; FIG. 3, versus h/rCRF): reduced by about six-fold
- complex formation with CRF-binding protein (CRF binding protein): formed a complex with binding protein

Compound: NDDP[dP]ISIDLTFHLLRNMIEMARIENEREQAGLNRKYLDEV-NH2 [[D-Pro^5]white sucker fish urotensin I]
- ED50 (95% CL) μg/kg i.v. (heat-induced edema [1]; [3]): 9 (5-17) μg/kg
